From article PMC9158366, “The inhibition of tamoxifen on UGT2B gene expression and enzyme activity in rat liver contribute to the estrogen homeostasis dysregulation” (BMC Pharmacology & Toxicology, 2022)

Target: T1, UGT2B7 (Homo sapiens, UniProt P16662)
T1 sequence (P16662 24-529): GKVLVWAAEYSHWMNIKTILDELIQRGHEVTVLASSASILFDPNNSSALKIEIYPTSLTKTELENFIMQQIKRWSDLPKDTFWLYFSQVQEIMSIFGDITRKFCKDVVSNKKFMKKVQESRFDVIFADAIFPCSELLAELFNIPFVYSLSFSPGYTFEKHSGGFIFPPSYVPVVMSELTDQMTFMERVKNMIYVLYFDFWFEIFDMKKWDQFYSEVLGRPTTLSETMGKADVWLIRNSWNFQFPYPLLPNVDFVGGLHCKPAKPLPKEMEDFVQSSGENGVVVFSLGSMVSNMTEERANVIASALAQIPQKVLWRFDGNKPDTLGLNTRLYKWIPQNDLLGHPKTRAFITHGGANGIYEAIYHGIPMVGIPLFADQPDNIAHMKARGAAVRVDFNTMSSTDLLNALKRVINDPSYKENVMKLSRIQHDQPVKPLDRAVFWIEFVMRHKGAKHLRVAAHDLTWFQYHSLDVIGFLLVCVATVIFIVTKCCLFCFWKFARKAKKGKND
Experiment: inhibition of naloxone glucuronidation in human liver microsomes, HPLC
Assay type: biochemical

## CC/C(=C(\c1ccccc1)c1ccc(OCCN(C)C)cc1)c1ccccc1 [tamoxifen]
  Ki: 37.7 µM
